Where two headings read alike, the source gives them in different places.
What was measured:
Assay type in all cases: cell-based
[1] = biological target: T1, α1β3M286Cγ2L GABAA receptors (Homo sapiens, UniProt P14867+P28472, M311C); assay: GABA EC5 enhancement by anesthetics, voltage clamp in Xenopus oocytes; details: β3M286C; […] ETO, 5 μM PRO, […] ALX
[2] = biological target: T1, α1β3M286Cγ2L GABAA receptors; details: β3M286C; pCMBS + maximal GABA; 10 μM ETO, 20 μM PRO, 10 μM ALX
[3] = biological target: α1β3F293Cγ2L GABAA receptors (Homo sapiens, UniProt P14867+P28472, F318C); details: β3F293C; […] ETO, 5 μM PRO, […] ALX
Sequence of α1β3F293Cγ2L GABAA receptors (P14867 28-456): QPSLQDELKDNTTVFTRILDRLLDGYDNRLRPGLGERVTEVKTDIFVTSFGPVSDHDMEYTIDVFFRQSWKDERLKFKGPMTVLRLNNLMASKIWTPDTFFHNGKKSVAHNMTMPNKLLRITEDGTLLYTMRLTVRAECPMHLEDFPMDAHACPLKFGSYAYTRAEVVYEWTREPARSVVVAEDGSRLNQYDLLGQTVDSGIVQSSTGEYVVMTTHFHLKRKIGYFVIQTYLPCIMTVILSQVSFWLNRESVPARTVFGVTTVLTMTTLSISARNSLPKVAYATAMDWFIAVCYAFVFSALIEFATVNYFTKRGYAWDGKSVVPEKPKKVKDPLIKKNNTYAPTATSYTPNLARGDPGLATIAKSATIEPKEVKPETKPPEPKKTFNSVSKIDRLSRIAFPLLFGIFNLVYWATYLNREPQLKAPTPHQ
Sequence of α1β3F293Cγ2L GABAA receptors (P28472 26-473 F318C): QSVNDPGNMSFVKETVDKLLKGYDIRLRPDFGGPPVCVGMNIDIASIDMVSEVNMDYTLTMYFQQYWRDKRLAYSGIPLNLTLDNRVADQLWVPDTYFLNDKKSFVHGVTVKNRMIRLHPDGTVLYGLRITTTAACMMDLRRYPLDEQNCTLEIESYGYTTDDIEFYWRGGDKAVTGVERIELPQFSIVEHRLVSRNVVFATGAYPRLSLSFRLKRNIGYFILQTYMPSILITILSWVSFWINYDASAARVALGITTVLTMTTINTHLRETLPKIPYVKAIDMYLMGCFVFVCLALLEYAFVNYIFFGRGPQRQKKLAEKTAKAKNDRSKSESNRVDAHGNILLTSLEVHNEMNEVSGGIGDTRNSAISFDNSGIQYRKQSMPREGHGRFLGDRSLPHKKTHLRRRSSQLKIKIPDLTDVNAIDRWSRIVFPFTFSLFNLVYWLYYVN
Sequence of α1β3F293Cγ2L GABAA receptors (P18507 40-475 partner): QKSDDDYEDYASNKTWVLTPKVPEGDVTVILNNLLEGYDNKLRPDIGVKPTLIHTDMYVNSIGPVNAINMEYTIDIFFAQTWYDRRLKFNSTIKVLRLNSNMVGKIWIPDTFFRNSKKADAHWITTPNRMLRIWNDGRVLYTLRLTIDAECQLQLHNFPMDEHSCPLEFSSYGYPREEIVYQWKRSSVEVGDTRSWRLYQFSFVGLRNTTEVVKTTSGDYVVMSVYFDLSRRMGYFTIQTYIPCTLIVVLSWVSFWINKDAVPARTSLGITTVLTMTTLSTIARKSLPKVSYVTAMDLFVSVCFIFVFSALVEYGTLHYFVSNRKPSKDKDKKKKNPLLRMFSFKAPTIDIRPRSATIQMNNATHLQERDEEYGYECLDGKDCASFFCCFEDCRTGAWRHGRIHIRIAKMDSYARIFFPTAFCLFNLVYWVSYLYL

[4] = biological target: T2, α1β3F289Cγ2L GABAA receptors (Homo sapiens, UniProt P14867+P28472, F314C); details: β3F289C; […] ETO, 5 μM PRO, […] ALX
T2 sequence (P14867 28-456): as the sequence (P14867 28-456) above
T2 sequence (P28472 26-473 F314C): as the sequence (P28472 26-473 F318C) above, with F289C, C293F counted along it
T2 sequence (P18507 40-475 partner): as the sequence (P18507 40-475 partner) above

[5] = biological target: α1β3V290Cγ2L GABAA receptors (Homo sapiens, UniProt P14867+P28472, V315C); details: α1β3V290Cγ2L; pCMBS + maximal GABA; 10 μM ETO, 20 μM PRO, 10 μM ALX
Sequence of α1β3V290Cγ2L GABAA receptors (P14867 28-456, stated change not applied): as the sequence (P14867 28-456) above
Sequence of α1β3V290Cγ2L GABAA receptors (P28472 26-473 V315C): as the sequence (P28472 26-473 F318C) above, with V290C, C293F counted along it
Sequence of α1β3V290Cγ2L GABAA receptors (P18507 40-475 partner): as the sequence (P18507 40-475 partner) above

[6] = biological target: α1β3E298Cγ2L GABAA receptors (Homo sapiens, UniProt P14867+P28472, E323C); assay: GABA EC5 enhancement by anesthetics, voltage clamp in Xenopus oocytes; details: β3E298C; […] ETO, 5 μM PRO, […] ALX
Sequence of α1β3E298Cγ2L GABAA receptors (P14867 28-456): as the sequence (P14867 28-456) above
Sequence of α1β3E298Cγ2L GABAA receptors (P28472 26-473 E323C): as the sequence (P28472 26-473 F318C) above, with C293F, E298C counted along it
Sequence of α1β3E298Cγ2L GABAA receptors (P18507 40-475 partner): as the sequence (P18507 40-475 partner) above

[7] = biological target: T2, α1β3F289Cγ2L GABAA receptors; details: pCMBS + maximal GABA
[8] = biological target: α1β3L297Cγ2L GABAA receptors (Homo sapiens, UniProt P14867+P28472, L322C); assay: GABA EC5 enhancement by anesthetics, voltage clamp in Xenopus oocytes; details: β3L297C; […] ETO, 5 μM PRO, […] ALX
Sequence of α1β3L297Cγ2L GABAA receptors (P14867 28-456): as the sequence (P14867 28-456) above
Sequence of α1β3L297Cγ2L GABAA receptors (P28472 26-473 L322C): as the sequence (P28472 26-473 F318C) above, with C293F, L297C counted along it
Sequence of α1β3L297Cγ2L GABAA receptors (P18507 40-475 partner): as the sequence (P18507 40-475 partner) above

[9] = biological target: α1β3T262Cγ2L GABAA receptors (Homo sapiens, UniProt P14867+P28472, T287C); assay: Substituted cysteine modification-protection; details: pCMBS + maximal GABA, 10 μM ETO, 20 μM PRO
Sequence of α1β3T262Cγ2L GABAA receptors (P14867 28-456): as the sequence (P14867 28-456) above
Sequence of α1β3T262Cγ2L GABAA receptors (P28472 26-473 T287C): as the sequence (P28472 26-473 F318C) above, with T262C, C293F counted along it
Sequence of α1β3T262Cγ2L GABAA receptors (P18507 40-475 partner): as the sequence (P18507 40-475 partner) above

[10] = 10 μM ETO, 20 μM PRO, 10 μM ALX

T1 sequence (P14867 28-456): as the sequence (P14867 28-456) above
T1 sequence (P28472 26-473 M311C): as the sequence (P28472 26-473 F318C) above, with M286C, C293F counted along it
T1 sequence (P18507 40-475 partner): as the sequence (P18507 40-475 partner) above

CCOC(=O)c1cncn1[C@H](C)c1ccccc1 [ETO, R-Etomidate]
EC5 enhancement compared to wild-type [1]: reduced
effect on apparent rate of pCMBS modification [2]: block modification
EC5 enhancement compared to wild-type [3]: increased
EC5 enhancement compared to wild-type [4]: reduced
effect on apparent rate of pCMBS modification [5]: strongly blocked
EC5 enhancement compared to wild-type [6]: increased
effect on apparent rate of pCMBS modification [7, 10]: weakly blocked
EC5 enhancement compared to wild-type [8]: increased
effect on apparent rate of pCMBS modification [9]: unaffected

CC(C)c1cccc(C(C)C)c1O [PRO, 2,6-diisopropylphenol]
EC5 enhancement compared to wild-type [1]: reduced
effect on apparent rate of pCMBS modification [2]: block modification
EC5 enhancement compared to wild-type [3]: reduced
EC5 enhancement compared to wild-type [4]: reduced
effect on apparent rate of pCMBS modification [5]: strongly blocked
effect on apparent rate of pCMBS modification [7, 10]: unaffected
effect on apparent rate of pCMBS modification ([7]; 50 μM ETO, 100 μM PRO, 50 μM ALX): neither 100 μM PRO nor 50 μM ALX inhibited modification
effect on apparent rate of pCMBS modification [9]: accelerated

From paper PMC5771863 (Anesthesiology, 2018)
